Laboratory results taken from ChEMBL document CHEMBL1127607, “Genetically evolved receptor models: a computational approach to construction of receptor models” (J Med Chem, 1994).

Species: Homo sapiens
Assay: Potency based on concentration of sweetener which matches the sweetness recognition threshold of sucrose (~2%)
Type: functional, organism-based

Structure (SMILES)	Log potency
COC(=O)C(Cc1ccccc1)NC(=O)C(CC(=O)O)/N=C(\S)Nc1ccc(C#N)cc1 (configuration not stated)	4.7
N#Cc1ccc(N/C(=N/CC(=O)O)NS(=O)(=O)c2ccccc2)cc1	4.48
N#CN/C(=N\CCC(=O)O)Nc1ccc(C#N)cc1	2.95
N#Cc1ccc(NC(=O)NC(CC(=O)O)c2ccncc2)cc1 (configuration not stated)	3.3
CC(NC(=O)C(N)CC(=O)O)C(=O)NC1C(C)(C)CCC1(C)C (configuration not stated)	2.9
CC12CCC(C1)C(C)(C)C2OC(=O)C(NC(=O)C(N)CC(=O)O)c1cccs1 (configuration not stated)	3.38
N#Cc1ccc(NC(=O)NC(CC(=O)O)c2cccnc2)cc1 (configuration not stated)	4.3
N#Cc1ccc(NC(=O)NCCC(=O)O)cc1	2.65
O=C(O)C/N=C(\NCc1ccccc1)Nc1cc(Cl)cc(Cl)c1	4.9
N#Cc1ccc(N/C(S)=N/CCC(=O)O)cc1	3.32
CC(NC(=O)C(N)CC(=O)O)C(=O)NC1C(C)(C)SC1(C)C (configuration not stated)	3.3
C[C@@H](N/C(=N\CC(=O)O)Nc1cc(Cl)cc(Cl)c1)c1ccccc1	5.08
N#Cc1ccc(N/C(=N/CC(=O)O)NC2CCCCCCC2)cc1	5.23
CC12CCC(C1)C(C)(C)C2OC(=O)C(NC(=O)C(N)CC(=O)O)c1ccco1 (configuration not stated)	4.22
O=C(O)CCNC(=O)Nc1ccc([N+](=O)[O-])cc1	2.85
N#CN/C(=N\CC(=O)O)Nc1ccc(C#N)cc1	3.85
COC(=O)[C@H](Cc1ccccc1)NC(=O)[C@@H](N)CC(=O)O	2.26
N#Cc1ccc(N/C(=N/CC(=O)O)NCc2ccccc2)cc1	4.48
CC(NC(=O)C(N)CC(=O)O)C(=O)NC1CCCC1 (configuration not stated)	1.7
C[C@@H](N/C(=N\CC(=O)O)Nc1ccc(C#N)cc1)c1ccccc1	4.45
N#Cc1ccc(NC(=O)NC(CC(=O)O)c2ccccc2)cc1 (configuration not stated)	4
COC(=O)C(Cc1ccccc1)NC(=O)C(CC(=O)O)NC(=O)Nc1ccc(C#N)cc1 (configuration not stated)	4
